# Results as given in patent US9156831B2, “Chemical compounds” (ASTRAZENECA AB, priority 2013, dated 2015).
# Assays:
# Test in all cases: Cell proliferation assay (MTS)
# [1] = test system: COLO320DM
# Protocol: (§1) The sensitivity of a panel of human cancer cell lines to the effects of compounds was determined in a standard proliferation assay. Cell lines were sourced through the AstraZeneca Cell Bank.
# (§2) Cells were plated in 96 well plates at densities of 1000-6000 cells per well in RPMI media containing 10% FBS. After incubation at 37° C. for 16 hours, various concentrations of compound were added to the assay plates. After incubation for an additional 72 h, the viable cells were determined by the addition of MTS reagent (Promega #3582) to each well for 2 h. MTS is a tetrazolium salt that is bioreduced by metabolically active cells in the presence of an electron coupling reagent to formazan. The formazan product was then quantitated by absorbance at 490 nm, as an indicator of the relative number of live cells. In order to determine the GI50 (concentration at which growth of cells was inhibited by 50%) the relative number of cells present at the time of drug addition was determined by comparison with the MTS readout before the drug was added, and this value was subtracted from the 72 hr value of untreated cells as a measure of cell growth during the assay.
# [2] = test system: HPAC; format: cell-based, human
# Protocol: (§3) The sensitivity of a panel of human cancer cell lines to the effects of compounds was determined in a standard proliferation assay.
# as §2
# [3] = test system: GTL16; format: cell-based, human
# Protocol: as §3
# (§4) Cells were plated in 96 well plates at densities of 1000-6000 cells per well in RPMI media containing 10% FBS. After incubation at 37° C. for 16 hours, various concentrations of compound were added to the assay plates. After incubation for an additional 72 h, the viable cells were determined by the addition of MTS reagent (Promega #3582) to each well for 2 h. […] The formazan product was then quantitated by absorbance at 490 nm, as an indicator of the relative number of live cells. In order to determine the GI50 (concentration at which growth of cells was inhibited by 50%) the relative number of cells present at the time of drug addition was determined by comparison with the MTS readout before the drug was added, and this value was subtracted from the 72 hr value of untreated cells as a measure of cell growth during the assay.
# [4] = test system: HCT116; format: cell-based, human
# Protocol: as §3, §2
# [5] = test system: BT20; format: cell-based, human
# Protocol: as §1, §2
# [6] = test system: CAPAN1; format: cell-based, human
# Protocol: as §3, §2
# [7] = test system: HCC95; format: cell-based, human
# Protocol: as §1, §2
# [8] = test system: AGS; format: cell-based, human
# Protocol: as §3, §2
# [9] = test system: H1437; format: cell-based, human
# Protocol: as §3, §2
# [10] = test system: U937; format: cell-based, human
# Protocol: as §3, §2
# [11] = test system: MGHU3; format: cell-based, human
# Protocol: as §1, §2
# [12] = test system: NUGC4; format: cell-based, human
# Protocol: as §3, §2
# [13] = test system: HUPT3; format: cell-based, human
# Protocol: as §1, §2
# [14] = test system: H2170; format: cell-based, human
# Protocol: as §1, §2
# [15] = test system: HT1197; format: cell-based, human
# Protocol: as §3, §2
# [16] = test system: CAMA1; format: cell-based, human
# Protocol: as §1, §2
# [17] = test system: H2085; format: cell-based, human
# Protocol: as §3, §2
# [18] = test system: HCC1954; format: cell-based, human
# Protocol: as §3, §2
# [19] = test system: SW948; format: cell-based, human
# Protocol: as §3, §2
# [20] = test system: H358; format: cell-based, human
# Protocol: as §3, §4
# [21] = test system: HCC1419; format: cell-based, human
# Protocol: as §3, §2
# [22] = test system: AMO1; format: cell-based, human
# Protocol: as §1, §2
# [23] = test system: SW48; format: cell-based, human
# Protocol: as §1, §2
# [24] = test system: JVM3; format: cell-based, human
# Protocol: as §3, §2
# [25] = test system: CCK81; format: cell-based, human
# Protocol: as §3, §2
# [26] = test system: SNU5; format: cell-based, human
# Protocol: as §3, §4
# [27] = test system: SNU601; format: cell-based, human
# Protocol: as §1, §2
# [28] = test system: H596; format: cell-based, human
# Protocol: as §3, §2
# [29] = test system: H522; format: cell-based, human
# Protocol: as §3, §4
# [30] = test system: HLF; format: cell-based, human
# Protocol: as §1, §2
# [31] = test system: 22RV1; format: cell-based, human
# Protocol: as §3, §2
# [32] = test system: RERFLCSQ1; format: cell-based, human
# Protocol: as §3, §2
# [33] = test system: SNU354; format: cell-based, human
# Protocol: as §3, §4
# [34] = test system: NUGC3; format: cell-based, human
# Protocol: as §1, §2
# [35] = test system: CALU3; format: cell-based, human
# Protocol: as §1, §4
# [36] = test system: QGP1; format: cell-based, human
# Protocol: as §3, §4
# [37] = test system: N87; format: cell-based, human
# Protocol: as §1, §4
# [38] = test system: SW480; format: cell-based, human
# Protocol: as §3, §4
# [39] = test system: A2058; format: cell-based, human
# Protocol: as §3, §2
# [40] = test system: LNCAPCLONEFGC; format: cell-based, human
# Protocol: as §1, §2
# [41] = test system: J82; format: cell-based, human
# Protocol: as §3, §4
# [42] = test system: HUPT4; format: cell-based, human
# Protocol: as §3, §2
# [43] = Homo sapiens, Bladder, PIK3CA MUT
# [44] = Homo sapiens, Colon, PIK3CA MUT
smiles,measurement,setting,value
"CCn1nc(C2CCN(C(=O)CCO)CC2)nc1-c1cnc(N)c(-c2nnc(C(C)(C)C)o2)n1 [Example 3, 1-(4-(5-(5-amino-6-(5-tert-butyl-1,3,4-oxadiazol-2-yl)pyrazin-2-yl)-1-ethyl-1H-1,2,4-triazol-3-yl)piperidin-1-yl)-3-hydroxypropan-1-one]",Category,[1]; COLO320DM,Resistant (resistant (GI50>1.0 μM))
same,GI50,"[1]; Homo sapiens, COLO 320DM",2.51 µM
same,Category,[2],Resistant (resistant (GI50>1.0 μM))
same,GI50,"[2]; Homo sapiens, Pancreas, PIK3CA WT",2.16 µM
same,Category,[3],Resistant (resistant (GI50>1.0 μM))
same,GI50,"[3]; Homo sapiens, GTL 16, Stomach, PIK3CA WT",17.4 µM
same,Category,[4],Resistant (resistant (GI50>1.0 μM))
same,GI50,"[4]; Homo sapiens, HCT-116, Colon, PIK3CA MUT",30 µM
same,Category,[5],Resistant (resistant (GI50>1.0 μM))
same,GI50,"[5]; Homo sapiens, BT-20, Breast, PIK3CA MUT",2.36 µM
same,Category,[6],Resistant (resistant (GI50>1.0 μM))
same,GI50,"[6]; Homo sapiens, CAPAN-1, Pancreas, PIK3CA WT",30 µM
same,Category,[7],Resistant (resistant (GI50>1.0 μM))
same,GI50,"[7]; Homo sapiens, Lung, PIK3CA WT",3.11 µM
same,Category,[8],Resistant (resistant (GI50>1.0 μM))
same,GI50,"[8]; Homo sapiens, Stomach, PIK3CA MUT",1.41 µM
same,Category,[9],Resistant (resistant (GI50>1.0 μM))
same,GI50,"[9]; Homo sapiens, NCI-H1437, Lung, PIK3CA WT",30 µM
same,Category,[10],Resistant (resistant (GI50>1.0 μM))
same,GI50,"[10]; Homo sapiens, U-937, Blood/lymph, PIK3CA WT",7.34 µM
same,Category,[11],Resistant (resistant (GI50>1.0 μM))
same,GI50,"[11]; Homo sapiens, Bladder, PIK3CA WT",11.5 µM
same,Category,[12],Resistant (resistant (GI50>1.0 μM))
same,GI50,"[12]; Homo sapiens, NUGC-4, Stomach, PIK3CA WT",30 µM
same,Category,[13],Resistant (resistant (GI50>1.0 μM))
same,GI50,"[13]; Homo sapiens, HuP-T3, Pancreas, PIK3CA WT",13.4 µM
same,Category,[14],Resistant (resistant (GI50>1.0 μM))
same,GI50,"[14]; Homo sapiens, NCI-H2170, Lung, PIK3CA WT",7.64 µM
same,Category,[15],Resistant (resistant (GI50>1.0 μM))
same,GI50,[15]; [43],2.8 µM
same,Category,[16],Resistant (resistant (GI50>1.0 μM))
same,GI50,"[16]; Homo sapiens, CAMA-1, Breast, PIK3CA WT",15.5 µM
same,Category,[17],Resistant (resistant (GI50>1.0 μM))
same,GI50,"[17]; Homo sapiens, Lung, PIK3CA WT",1.83 µM
same,Category,[18],Sensitive (sensitive (GI50<=1.0 μM))
same,GI50,"[18]; Homo sapiens, Breast, PIK3CA MUT",0.879 µM
same,Category,[19],Sensitive (sensitive (GI50<=1.0 μM))
same,GI50,[19]; [44],0.911 µM
same,Category,[20],Resistant (resistant (GI50>1.0 μM))
same,GI50,"[20]; Homo sapiens, NCI-H358, Lung, PIK3CA WT",4.64 µM
same,Category,[21],Sensitive (sensitive (GI50<=1.0 μM))
same,GI50,"[21]; Homo sapiens, Breast, PIK3CA WT",0.78 µM
same,Category,[22],Resistant (resistant (GI50>1.0 μM))
same,GI50,"[22]; Homo sapiens, Blood/lymph, PIK3CA WT",26.9 µM
same,Category,[23],Sensitive (sensitive (GI50<=1.0 μM))
same,GI50,[23]; [44],0.513 µM
same,Category,[24],Resistant (resistant (GI50>1.0 μM))
same,GI50,"[24]; Homo sapiens, JVM-3, Blood/lymph, PIK3CA WT",30 µM
same,Category,[25],Sensitive (sensitive (GI50<=1.0 μM))
same,GI50,[25]; [44],0.803 µM
same,Category,[26],Resistant (resistant (GI50>1.0 μM))
same,GI50,"[26]; Homo sapiens, SNU-5, Stomach, PIK3CA WT",21.2 µM
same,Category,[27],Sensitive (sensitive (GI50<=1.0 μM))
same,GI50,"[27]; Homo sapiens, SNU-601, Stomach, PIK3CA MUT",0.506 µM
same,Category,[28],Sensitive (sensitive (GI50<=1.0 μM))
same,GI50,"[28]; Homo sapiens, NCI-H596, Lung, PIK3CA MUT",0.302 µM
same,Category,[29],Resistant (resistant (GI50>1.0 μM))
same,GI50,"[29]; Homo sapiens, NCI-H522, Lung, PIK3CA WT",15.6 µM
same,Category,[30],Resistant (resistant (GI50>1.0 μM))
same,GI50,"[30]; Homo sapiens, Liver, PIK3CA WT",30 µM
same,Category,[31],Resistant (resistant (GI50>1.0 μM))
same,GI50,"[31]; Homo sapiens, Prostate, PIK3CA MUT",4.14 µM
same,GI50,"[32]; Homo sapiens, RERF-LC-Sq1, Lung, PIK3CA MUT",0.771 µM
same,Category,[32]; RERFLCSQ1,Sensitive (sensitive (GI50<=1.0 μM))
same,Category,[33],Resistant (resistant (GI50>1.0 μM))
same,GI50,"[33]; Homo sapiens, SNU-354, Liver, PIK3CA WT",5.6 µM
same,Category,[34],Resistant (resistant (GI50>1.0 μM))
same,GI50,"[34]; Homo sapiens, NUGC-3, Stomach, PIK3CA WT",24.2 µM
same,Category,[35],Resistant (resistant (GI50>1.0 μM))
same,GI50,"[35]; Homo sapiens, Calu-3, Lung, PIK3CA WT",1.3 µM
same,Category,[36],Resistant (resistant (GI50>1.0 μM))
same,GI50,"[36]; Homo sapiens, QGP-1, Pancreas, PIK3CA WT",4.87 µM
same,Category,[37],Resistant (resistant (GI50>1.0 μM))
same,GI50,"[37]; Homo sapiens, Stomach, PIK3CA WT",1.3 µM
same,Category,[38],Resistant (resistant (GI50>1.0 μM))
same,GI50,"[38]; Homo sapiens, Colon, PIK3CA WT",15.9 µM
same,Category,[39],Resistant (resistant (GI50>1.0 μM))
same,GI50,"[39]; Homo sapiens, Skin, PIK3CA WT",30 µM
same,Category,[40],Resistant (resistant (GI50>1.0 μM))
same,GI50,"[40]; Homo sapiens, LNCaP-Clone-FGC, Prostate, PIK3CA WT",3.01 µM
same,Category,[41],Resistant (resistant (GI50>1.0 μM))
same,GI50,[41]; [43],13.4 µM
same,Category,[42],Sensitive (sensitive (GI50<=1.0 μM))
same,GI50,"[42]; Homo sapiens, HuP-T4, Pancreas, PIK3CA WT",0.641 µM
